Experimental data from ChEMBL document CHEMBL1201862, “PubChem BioAssay data set” (2004).
Activity calls are given as the source filed them.

What was measured:
[1] = target: Mu-type opioid receptor (Homo sapiens, UniProt P35372); assay type: functional, cell-based;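 note: U2OS cells with beta-arrestin recruitment to OPRM1 by beta-gal complementation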
[2] = target: 5-hydroxytryptamine receptor 2A (Mus musculus, UniProt P35363); assay type: functional, cell-based;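 note: CHO-K1 cells with tagged receptor and beta-arrestin; agonist potency measured as compound-induced activation of the receptor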
5-hydroxytryptamine receptor 2A, sequence (P35363 whole entry): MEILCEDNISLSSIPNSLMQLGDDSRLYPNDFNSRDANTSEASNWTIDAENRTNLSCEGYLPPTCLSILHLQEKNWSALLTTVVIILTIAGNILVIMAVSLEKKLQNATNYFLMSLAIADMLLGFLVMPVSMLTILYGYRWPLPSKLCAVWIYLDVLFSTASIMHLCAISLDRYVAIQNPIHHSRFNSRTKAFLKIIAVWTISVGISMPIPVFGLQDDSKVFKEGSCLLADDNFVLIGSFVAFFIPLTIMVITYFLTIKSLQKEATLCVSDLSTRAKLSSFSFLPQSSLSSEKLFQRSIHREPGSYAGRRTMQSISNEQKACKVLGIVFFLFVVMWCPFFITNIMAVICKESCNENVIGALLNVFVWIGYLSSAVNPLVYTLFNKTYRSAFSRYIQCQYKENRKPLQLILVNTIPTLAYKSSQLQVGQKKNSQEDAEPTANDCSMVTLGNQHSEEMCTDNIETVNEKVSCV

[3] = target: T1, Caspase-6 (Homo sapiens, UniProt P55212); assay: human caspase-6 inhibitors, dose response, biochemical, VEID-R110 fluorescence, cherry-pick (AID 720632)
T1 sequence (P55212 whole entry): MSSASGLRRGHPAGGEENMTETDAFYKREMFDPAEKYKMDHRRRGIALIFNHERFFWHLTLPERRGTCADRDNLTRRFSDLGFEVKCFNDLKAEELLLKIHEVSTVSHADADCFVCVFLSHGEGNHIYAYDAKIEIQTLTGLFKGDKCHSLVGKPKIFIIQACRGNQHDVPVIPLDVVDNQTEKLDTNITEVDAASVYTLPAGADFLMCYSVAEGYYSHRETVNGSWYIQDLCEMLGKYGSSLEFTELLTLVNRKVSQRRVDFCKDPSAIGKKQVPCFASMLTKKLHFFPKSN

[4] = target: Beta-lactamase (Salmonella choleraesuis (strain SC-B67), UniProt Q5J463); assay: Epi-absorbance-based counterscreen for selective VIM-2 inhibitors: dose response biochemical high throughput screening assay to identify inhibitors of TEM-1 serine-beta-lactamase.
Beta-lactamase (Salmonella choleraesuis (strain SC-B67), UniProt Q5J463), sequence (Q5J463 whole entry): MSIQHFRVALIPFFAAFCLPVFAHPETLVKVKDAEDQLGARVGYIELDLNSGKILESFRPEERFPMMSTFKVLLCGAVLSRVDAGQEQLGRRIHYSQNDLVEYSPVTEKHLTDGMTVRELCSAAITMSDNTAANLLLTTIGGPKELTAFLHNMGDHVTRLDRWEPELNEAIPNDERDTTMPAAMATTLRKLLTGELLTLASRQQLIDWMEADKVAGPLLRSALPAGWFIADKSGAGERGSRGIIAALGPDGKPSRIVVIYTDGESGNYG

[5] = target: T2, Beta-lactamase (Pseudomonas aeruginosa, UniProt Q79MP6); assay: IMP-1 metallo-beta-lactamase inhibitors, dose response, selectivity assay for VIM-2 inhibitor project, biochemical, epi-absorbance (AID 1920)
T2 sequence (Q79MP6 whole entry): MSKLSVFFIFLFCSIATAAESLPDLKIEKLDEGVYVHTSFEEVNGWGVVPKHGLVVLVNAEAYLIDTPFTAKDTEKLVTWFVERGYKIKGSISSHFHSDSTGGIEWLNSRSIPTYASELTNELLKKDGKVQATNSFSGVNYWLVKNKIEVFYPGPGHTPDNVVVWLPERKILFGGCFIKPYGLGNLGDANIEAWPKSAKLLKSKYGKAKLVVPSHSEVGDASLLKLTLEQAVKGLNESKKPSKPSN

[6] = target: T2, Beta-lactamase; assay: […] counterscreen for selective VIM-2 inhibitors: dose response biochemical high throughput screening assay to identify inhibitors of IMP-1 metallo-beta-lactamase.
[7] = tested on: H9c2; assay: cells; assay type: functional, cell-based; conditions: Rattus norvegicus, H9c2, Myocardium;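 note: confirmatory concentration-response retest of ultra-high-throughput screening hits for modulation of myocardial damage; cell death induced by hydrogen peroxide oxidative stress; compound pretreatment for 60 min then peroxide exposure for 2 h; potency is for protecting the cells against peroxide damage rather than for killing them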
[8] = target: Paired box protein Pax-8 (Homo sapiens, UniProt Q06710); assay: inhibitors of PAX8-driven TPO luciferase reporter, dose response, RMG-I cells, cherry-pick (AID 687027); assay type: functional, cell-based;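 note: luciferase reporter driven by Pax8 target thyroperoxidase promoter measured by SteadyGlo luminescence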
Paired box protein Pax-8, sequence (Q06710 whole entry): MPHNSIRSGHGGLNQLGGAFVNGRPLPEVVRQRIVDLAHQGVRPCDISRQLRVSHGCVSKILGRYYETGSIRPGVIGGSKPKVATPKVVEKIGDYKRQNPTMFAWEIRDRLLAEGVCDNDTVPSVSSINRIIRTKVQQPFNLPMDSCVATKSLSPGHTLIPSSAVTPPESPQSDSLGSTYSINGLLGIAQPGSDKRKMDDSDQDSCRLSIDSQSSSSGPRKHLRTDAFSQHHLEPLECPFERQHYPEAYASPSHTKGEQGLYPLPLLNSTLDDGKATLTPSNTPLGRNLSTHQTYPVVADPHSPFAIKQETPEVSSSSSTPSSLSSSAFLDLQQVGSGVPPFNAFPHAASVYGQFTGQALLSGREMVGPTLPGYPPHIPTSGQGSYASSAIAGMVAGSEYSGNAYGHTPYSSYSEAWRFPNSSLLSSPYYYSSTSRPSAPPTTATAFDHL

[9] = non-specific cell cytotoxicity, dose response, cytotoxicity control for PAX8 inhibitor project, plate reader, dry powder samples (AID 743021); assay type: functional, cell-based
[10] = target: T3, Microphthalmia-associated transcription factor (Homo sapiens, UniProt O75030); assay: TRPM1 promoter luciferase signal decrease, dose response, MITF inhibitor project, cell-based, SK-MEL-5, cherry-picked, set 3 (AID 493073); assay type: functional
T3 sequence (O75030 whole entry): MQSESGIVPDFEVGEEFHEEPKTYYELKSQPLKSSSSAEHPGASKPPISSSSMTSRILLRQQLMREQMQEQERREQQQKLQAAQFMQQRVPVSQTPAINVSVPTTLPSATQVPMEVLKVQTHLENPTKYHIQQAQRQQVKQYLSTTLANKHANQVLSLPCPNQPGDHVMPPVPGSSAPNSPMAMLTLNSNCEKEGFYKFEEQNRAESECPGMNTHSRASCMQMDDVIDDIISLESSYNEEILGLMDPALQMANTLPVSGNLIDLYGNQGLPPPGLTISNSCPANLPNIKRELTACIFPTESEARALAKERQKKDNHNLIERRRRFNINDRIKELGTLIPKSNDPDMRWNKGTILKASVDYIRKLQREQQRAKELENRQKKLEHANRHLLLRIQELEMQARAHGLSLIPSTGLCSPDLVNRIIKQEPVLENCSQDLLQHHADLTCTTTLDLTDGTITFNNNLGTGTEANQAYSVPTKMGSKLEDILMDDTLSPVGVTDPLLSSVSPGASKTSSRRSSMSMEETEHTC

[11] = tested on: Vero; assay: cells; assay type: functional, cell-based; conditions: Chlorocebus sabaeus
[12] = tested on: Vero; assay: cells; assay type: functional; conditions: Chlorocebus sabaeus

Mu-type opioid receptor, sequence (P35372 whole entry): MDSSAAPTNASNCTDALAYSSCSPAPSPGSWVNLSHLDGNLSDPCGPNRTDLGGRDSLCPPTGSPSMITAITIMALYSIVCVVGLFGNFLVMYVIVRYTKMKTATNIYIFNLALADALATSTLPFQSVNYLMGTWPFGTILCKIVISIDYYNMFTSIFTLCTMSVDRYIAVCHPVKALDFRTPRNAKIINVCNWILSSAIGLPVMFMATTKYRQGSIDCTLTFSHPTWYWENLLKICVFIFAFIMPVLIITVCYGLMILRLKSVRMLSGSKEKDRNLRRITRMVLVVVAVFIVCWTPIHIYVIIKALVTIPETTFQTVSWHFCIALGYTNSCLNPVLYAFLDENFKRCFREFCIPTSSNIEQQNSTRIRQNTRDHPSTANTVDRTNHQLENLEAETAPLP

With CCOc1ccc(NC(=O)CCN2CCN(c3ccccc3F)CC2)cc1 the EC50 [1] was 92.6 µM (inactive) and the EC50 [2] was 0.0925 µM (active).

For Nc1nc(-c2ccccc2)nc(O)c1N=O, the AC50 [3] was 11.6 µM (active).

With O=C(O)C(NC(=O)c1ccccc1)=C(Cl)Cl the IC50 [4] was > 59.6 µM (inactive), the IC50 [5] was > 59.6 µM (inactive) and the IC50 [6] was > 59.6 µM (inactive).

With O=C(C(=O)N(Cc1ccccc1)Cc1ccccc1)c1c(-c2ccccc2)[nH]c2ccccc12 the IC50 [7] was > 79 µM (inactive), the AC50 [8] was 7.45 µM (active) and the AC50 [9] was 44.5 µM (active).

With CCN(CC)C(=O)N[C@H]1C[C@@H]2c3cccc4[nH]cc(c34)C[C@H]2N(C)C1 [TERGURIDE] the EC50 [1] was 92.5 µM (inactive) and the EC50 [2] was 0.0038 µM (active).

For Cc1cc(C)cc(NC(=O)Cc2ccc(S(=O)(=O)N3CCCC3)s2)c1, the AC50 [3] was 24.2 µM (active).

In the case of CC(C)C(CCNC1CCN(C)CC1)c1ccc(Cl)cc1 (stereo not given), the AC50 [10] is reported as 11.9 µM (active), the IC50 [11] is reported as > 25 µM (active) and the CC50 [12] is reported as 20.4 µM (active).
